Columns and labels:
MRSA LUH14616 [1] = assay: In vitro killing assay on mid-log phase bacteria, MRSA LUH14616; format: cell-based, Staphylococcus aureus; conditions: for killing of MRSA LUH14616, in words: comparison among peptides tested, FIGS. 2-3
From the text: (§1) The clinical isolate of methicillin-resistant Staphylococcus aureus (MRSA), LUH14616 was kindly provided by Dr. S. Croes, Maastricht University Medical Center, Maastricht, Netherlands (see S.B.M.C. Croes, Microbiol. 2009; 9:229. doi: 10.1186/1471-2180-9-229) and that of mupirocine-resistant MRSA LUH15051 was a gift from Dr. M.E.O.C. Heck (Laboratory for Infectious Diseases and Screening, National Institute for Public Health and Environment, RIVM, Bilthoven, Netherlands).
(§2) Bacteria were stored at -80° C. until use. Inoculi of mid-log phase bacteria were prepared by incubating isolated MRSA colonies from blood agar plates in Tryptic Soy Broth (TSB) medium (Becton Dickinson, Le Pont de Clax, France) for 2.5 hours and then diluted to the concentration needed.
(§3) For the in vitro killing assay on mid-log phase bacteria, MRSA LUH14616 and MRSA LUH15051 were resuspended to a concentration of 1×10^6 bacteria/ml in PBS. Subsequently, 200 μl was added to a concentration range of peptides LL-37, P60.4Ac (OP-145) and P10 that were lyophilized in advance. Subsequently, the bacteria-peptide mixture was incubated for 1 hour at 37° C. To establish the killing capacity of these peptides, the suspensions were serially diluted and plated onto DST agar plates to measure viable CFU counts. IC90, IC99 and IC99.9 values are calculated by linear regression analysis.

MRSA LUH15051 [2] = assay: Burn wound infection model, thermally wounded human skin equivalents, mupirocin-resistant MRSA LUH15051; format: cell-based, Staphylococcus aureus; conditions: compared with LL-37 and P60.4Ac, FIG. 5
Procedure: (§4) Human skin equivalents were prepared as described in El Ghalbzouri et al. (Lab. Invest. 2004 January; 84(1):102-12). In brief, 5×10^5 normal human keratinocytes were seeded onto fibroblast-populated rat-tail collagen matrices. The collagen matrices were prepared in advance by making a basal (0.1% acetic acid, 4 mg/ml collagen, Hank's Balanced Salt Solution (HBSS, 10×), 1 M NaOH and FCS) and a top collagen layer in which normal human fibroblasts were seeded (4 mg/ml collagen, 10×HBSS, 1 M NaOH, FCS and fibroblasts). Transwell filters with 3 μm pore size (Corning 3414, Costar) were used to culture the human skin equivalents. The collagen matrices were cultured in fibroblast medium for a week. The full thickness human skin equivalents were first cultured submerged in keratinocyte medium for 2 or 3 days at 37° C. and 7.3% CO2 and were then cultured in keratinocyte medium as described above, but with 1% FCS and supplemented with […] L-serine, 10 mM L-carnitine, 1 μM DL-α-tocopherol-acetate, 50 μM ascorbic acid, a lipid supplement that contained palmitic acid, linoleic acid and arachidonic acid in a 1:1:1 ratio and 2.4×10^−5 M bovine serum albumin. […]

mycobacteria = assay: Activity against mycobacteria; format: cell-based
[3] = tested on: (drug-resistant) Pseudomonas aeruginosa strains; assay: Activity against Pseudomonas aeruginosa; format: cell-based; conditions: various (drug-resistant) strains
MRSA LUH15051 [4] = assay: In vitro killing assay on mid-log phase bacteria, mupirocine-resistant MRSA LUH15051; format: cell-based, Staphylococcus aureus; conditions: compared with LL-37 and P60.4Ac
From the text: as §1, §2, §3

[5] = tested on: lipoteichoic acid (LTA), peptidoglycan (PG) and lipopolysaccharides (LPS); assay: Endotoxin neutralization
From the text: The term “anti-inflammatory activity” of a polypeptide as used herein refers to inhibiting, reducing or preventing an inflammatory response in a subject that has been infected by microbes, e.g., bacteria, viruses, fungi, and/or parasites. Anti-inflammatory activity of polypeptides of the disclosure is achieved by inhibiting, reducing or preventing the release of pro-inflammatory microbial compounds, such as lipoteichoic acid (LTA), peptidoglycan (PG) and/or lipopolysaccharides (LPS). Anti-inflammatory activity can be measured by methods known in the art. One example of such method is a lipopolysaccharide neutralization assay. In this method, a polypeptide of the disclosure is mixed with 1 mg of lipopolysaccharides and incubated for 60 minutes. Thereafter, these mixtures were added to 4 times diluted fresh human blood and 18 hours thereafter, the level of cytokines (1L-8, 1L-12p40) in the blood sample are measured by ELISA.

[6] = tested on: (drug-resistant) Acinetobacter baumannii strains; assay: Activity against Acinetobacter baumannii; format: cell-based
[7] = tested on: methicillin-resistant S. aureus biofilm; assay: Prevention of MRSA biofilm formation; format: cell-based; conditions: on plastic as well as biotic (wounded 3-D human skin model) surfaces
MRSA LUH14616 [8] = assay: Burn wound infection model, thermally wounded human skin equivalents, MRSA LUH14616; format: cell-based, Staphylococcus aureus; conditions: compared with LL-37 and P60.4Ac, FIG. 4
Procedure: as §4

Aspergillus niger = assay: Activity against Aspergillus niger; format: cell-based
[9] = tested on: Staphylococcus epidermidis; assay: Activity against Staphylococcus epidermidis; format: cell-based
S. aureus JAR = format: cell-based; conditions: JAR, 2 h
Procedure: S. aureus JAR is described in Campoccia et al. (Int. J. Artif. Organs, 2008 September; 31(9):841-7).
For the in vitro killing assay with P10 variants, S. aureus JAR ([…] CFU/ml) were incubated for 2 hours at 37° C. with various concentrations of the peptides in PBS or in PBS/human plasma (1/1, v/v). […] The LC99.9 is the average value of two independent experiments.

[10] = tested on: (fluconazole-resistant) Candida albicans; assay: Activity against Candida albicans; format: cell-based

| Substance | LC99.9 (μM) (50% plasma) (S. aureus JAR) [µM] | LC99.9 (μM) (PBS) (S. aureus JAR) [µM] | other results |
| --- | --- | --- | --- |
| Ac-IGKEFKRIVERIKRFLRELVRPLR-NH2 (N-terminus and C-terminus assumed) [Peptide P60.4Ac, reference compound] | – | – | IC90 (MRSA LUH14616 [1]; MRSA LUH14616 in PBS, 1 hour at 37° C., 90% Inhibitory Concentration, linear regression): 750 nM |
| Ac-LAREYKKIVEKLKRWLRQVLRTLR-NH2 (N-terminus and C-terminus assumed) [Peptide P10] | 102.4 | 1.6 | eliminating mupirocine-resistant MRSA from thermally wounded human skin equivalents, in words (MRSA LUH15051 [2]): more effective than LL-37 and P60.4Ac; effectiveness against mycobacteria (mycobacteria): highly effective; activity compared with P60.4Ac (MRSA LUH14616 [1]; MRSA LUH14616, surviving bacteria at similar concentration): approximately 100 times; IC99.9 (MRSA LUH14616 [1]; MRSA LUH14616 in PBS, 1 hour at 37° C., 99.9% Inhibitory Concentration, linear regression): 0.59 µM; effectiveness against MRSA bacteria in log phase, stationary bacteria and bacteria residing in biofilms (MRSA LUH14616 [1]; MRSA, strain not stated): highly effective; killing of MRSA LUH14616, in words (MRSA LUH14616 [1]): highest activity; killing of MRSA LUH14616, in words (MRSA LUH14616 [1]; listed as Peptide 10): more effective than LL-37 and P60.4Ac; effectiveness against Pseudomonas aeruginosa [3]: highly effective; killing of mupirocine-resistant MRSA, in words (MRSA LUH15051 [4]): more effective than LL-37 and P60.4Ac; neutralization of endotoxin LTA, PG and LPS [5]: neutralizes; effectiveness against Acinetobacter baumannii [6]: highly effective; prevention of MRSA biofilm formation [7]: able to prevent; eliminating MRSA from thermally wounded human skin equivalents, in words (MRSA LUH14616 [8]): more effective than LL-37 and P60.4Ac; effectiveness against Aspergillus niger (Aspergillus niger): highly effective; effectiveness against Staphylococcus epidermidis [9]: highly effective; effectiveness against Candida albicans [10]: highly effective |
| Ac-LAREYKKIVEKLKRWLRTVLRTLR-NH2 [Peptide 1302-45, JLAREYKKIVEKLKRWLRTVLRTLRB] | 76.8 | 1.6 | – |
| Ac-LAREYKKIVEKVKRWLRQVLRTLR-NH2 [Peptide 1302-34, JLAREYKKIVEKVKRWLRQVLRTLRB] | 102.4 | 3.2 | – |
| Ac-LAREYKKIVERLKRWLRQVLRTLR-NH2 [Peptide 1302-31, JLAREYKKIVERLKRWLRQVLRTLRB] | 102.4 | 3.2 | – |
| Ac-LAREYKKIVPKLKRWLRQVPRTLR-NH2 [Peptide 1302-15, JLAREYKKIVPKLKRWLRQVPRTLRB] | 76.8 | >3.2 | – |
| Ac-LAREYKKPVEKLKRWLPQVLRTLR-NH2 [Peptide 1302-16, JLAREYKKPVEKLKRWLPQVLRTLRB] | 102.4 | >3.2 | – |
| Ac-LAREYKPIVEKLKRWPRQVLRTLR-NH2 [Peptide 1302-13, JLAREYKPIVEKLKRWPRQVLRTLRB] | >102.4 | >3.2 | – |
| Ac-LAREYKRIVEKLKRWLRQVLRTLR-NH2 [Peptide 1302-29, JLAREYKRIVEKLKRWLRQVLRTLRB] | 102.4 | 1.6 | – |
| Ac-LAREYPKIVEKLKRWLRPVLRTLR-NH2 [Peptide 1302-14, JLAREYPKIVEKLKRWLRPVLRTLRB] | 102.4 | 3.2 | – |
| Ac-LAREYRKIVEKLKRWLRQVLRTLR-NH2 [Peptide 1302-27, JLAREYRKIVEKLKRWLRQVLRTLRB] | 76.8 | 0.8 | – |
| Ac-LARQYKKIVEKLKRWLRQVLRTLR-NH2 [Peptide 1302-25, JLARQYKKIVEKLKRWLRQVLRTLRB] | 51.2 | 1.2 | – |
| Ac-LLREYKKIVEKLKRWLRQVLRTLR-NH2 [Peptide 1302-20, JLLREYKKIVEKLKRWLRQVLRTLRB] | 102.4 | 1.6 | – |
| Ac-LQREYKKIVEKLKRWLRQVLRTLR-NH2 [Peptide 1302-22, JLQREYKKIVEKLKRWLRQVLRTLRB] | 76.8 | 1.6 | – |
| Ac-LVREYKKIVEKLKRWLRQVLRTLR-NH2 [Peptide 1302-21, JLVREYKKIVEKLKRWLRQVLRTLRB] | 76.8 | 1.2 | – |
| Ac-REYKKIVEKLKRWLRQVLRT-NH2 [Peptide 1302-58, JREYKKIVEKLKRWLRQVLRTB] | 76.8 | 1.6 | – |
| Ac-REYKKIVEKLKRWLRQVLRTLR-NH2 [Peptide 1302-56, JREYKKIVEKLKRWLRQVLRTLRB] | 51.2 | 1.6 | – |
| Ac-VAREYKKIVEKLKRWLRQVLRTLR-NH2 [Peptide 1302-18, JVAREYKKIVEKLKRWLRQVLRTLRB] | 76.8 | 1.6 | – |
| Ac-YKKIVEKLKRWLRQVL-NH2 [Peptide 1302-62, JYKKIVEKLKRWLRQVLB] | 76.8 | 1.6 | – |
| Ac-YKKIVEKLKRWLRQVLRTLR-NH2 [Peptide 1302-59, JYKKIVEKLKRWLRQVLRTLRB] | 51.2 | 1.6 | – |

— patent US9562085B2, “Antimicrobial peptide” (priority 2013, dated 2017)
